# From ChEMBL document CHEMBL5465560, “Selectivity Literature for EUbOPEN Chemogenomic Library” (2024)
# Tests used:
# [1] = target: Casein kinase II subunit alpha (Homo sapiens, UniProt P68400); test: Selectivity interaction (KinomeScan (DiscoverX)) EUB0000666a CSNK2A1; details: at 10 µM
# [2] = target: Fibroblast growth factor receptor 1 (Homo sapiens, UniProt P11362); test: Selectivity interaction (KinomeScan (DiscoverX)) EUB0000666a FGFR1; details: at 10 µM
# [3] = target: STE20/SPS1-related proline-alanine-rich protein kinase (Homo sapiens) (UniProt Q9UEW8); details: at 10 µM
# [4] = target: Cyclin-dependent kinase 1 (Homo sapiens) (UniProt P06493); test: Selectivity interaction (Kinase screening (Nanosyn)) EUB0000604a CDK1
# [5] = target: T1, Cyclin-dependent kinase 11A (Homo sapiens) (UniProt Q9UQ88); test: Selectivity interaction (KinomeScan (DiscoverX)) EUB0001619a CDK11A; details: at 1 µM
# T1 sequence (whole entry): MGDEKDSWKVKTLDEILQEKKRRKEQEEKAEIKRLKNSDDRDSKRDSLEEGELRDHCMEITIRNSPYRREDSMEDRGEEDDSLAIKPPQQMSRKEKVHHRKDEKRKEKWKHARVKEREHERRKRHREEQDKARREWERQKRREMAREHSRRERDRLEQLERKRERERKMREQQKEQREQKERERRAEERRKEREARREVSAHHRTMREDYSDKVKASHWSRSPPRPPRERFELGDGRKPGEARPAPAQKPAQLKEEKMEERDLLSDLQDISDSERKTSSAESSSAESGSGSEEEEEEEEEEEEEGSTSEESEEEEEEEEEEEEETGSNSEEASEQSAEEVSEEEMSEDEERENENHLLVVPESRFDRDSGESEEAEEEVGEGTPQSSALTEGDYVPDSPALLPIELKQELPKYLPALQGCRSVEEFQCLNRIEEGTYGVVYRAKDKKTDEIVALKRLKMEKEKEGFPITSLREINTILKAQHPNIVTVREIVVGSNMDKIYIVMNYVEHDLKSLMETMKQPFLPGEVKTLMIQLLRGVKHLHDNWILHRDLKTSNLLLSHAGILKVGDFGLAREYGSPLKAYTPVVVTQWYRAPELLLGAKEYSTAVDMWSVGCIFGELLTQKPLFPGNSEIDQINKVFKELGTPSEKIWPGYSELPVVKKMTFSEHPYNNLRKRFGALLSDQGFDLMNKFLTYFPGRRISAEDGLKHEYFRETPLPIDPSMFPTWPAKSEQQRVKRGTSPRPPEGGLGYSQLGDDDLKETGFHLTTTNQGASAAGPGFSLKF
# [6] = target: T2, Serine/threonine-protein kinase TBK1 (Homo sapiens) (UniProt Q9UHD2); test: Selectivity interaction (ActivX KiNativ screen (ex vivo kinase selectivity in human PBMCs)) EUB0001619a TBK1; format: cell-based; details: PBMC, at 1 µM
# T2 sequence (whole entry): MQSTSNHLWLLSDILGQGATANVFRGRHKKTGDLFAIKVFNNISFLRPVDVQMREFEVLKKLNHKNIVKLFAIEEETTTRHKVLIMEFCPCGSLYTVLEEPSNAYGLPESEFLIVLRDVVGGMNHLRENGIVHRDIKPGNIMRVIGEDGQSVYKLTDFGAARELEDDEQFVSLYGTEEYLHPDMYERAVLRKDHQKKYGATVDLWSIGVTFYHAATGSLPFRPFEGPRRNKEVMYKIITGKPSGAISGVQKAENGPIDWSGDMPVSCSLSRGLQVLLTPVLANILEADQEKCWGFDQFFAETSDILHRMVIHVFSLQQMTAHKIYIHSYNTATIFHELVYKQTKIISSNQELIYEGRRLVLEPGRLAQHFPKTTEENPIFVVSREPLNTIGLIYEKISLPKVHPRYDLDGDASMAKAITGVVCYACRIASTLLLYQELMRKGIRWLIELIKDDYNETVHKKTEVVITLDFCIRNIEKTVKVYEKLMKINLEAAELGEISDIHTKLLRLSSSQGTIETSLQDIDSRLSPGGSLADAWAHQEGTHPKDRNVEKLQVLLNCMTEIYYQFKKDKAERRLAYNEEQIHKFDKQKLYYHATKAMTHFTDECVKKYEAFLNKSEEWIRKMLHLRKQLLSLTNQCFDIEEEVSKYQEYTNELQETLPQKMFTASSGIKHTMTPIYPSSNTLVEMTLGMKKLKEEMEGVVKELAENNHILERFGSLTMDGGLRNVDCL
# [7] = target: Myosin light chain kinase, smooth muscle (Homo sapiens, UniProt Q15746); test: Selectivity interaction (KinomeScan (DiscoverX)) EUB0000655a MYLK; details: at 10 µM
# [8] = target: Ribosomal protein S6 kinase alpha-6 (Homo sapiens, UniProt Q9UK32); details: at 10 µM
# [9] = target: T3, Ephrin type-B receptor 4 (Homo sapiens) (UniProt P54760); details: at 10 µM
# T3 sequence (whole entry): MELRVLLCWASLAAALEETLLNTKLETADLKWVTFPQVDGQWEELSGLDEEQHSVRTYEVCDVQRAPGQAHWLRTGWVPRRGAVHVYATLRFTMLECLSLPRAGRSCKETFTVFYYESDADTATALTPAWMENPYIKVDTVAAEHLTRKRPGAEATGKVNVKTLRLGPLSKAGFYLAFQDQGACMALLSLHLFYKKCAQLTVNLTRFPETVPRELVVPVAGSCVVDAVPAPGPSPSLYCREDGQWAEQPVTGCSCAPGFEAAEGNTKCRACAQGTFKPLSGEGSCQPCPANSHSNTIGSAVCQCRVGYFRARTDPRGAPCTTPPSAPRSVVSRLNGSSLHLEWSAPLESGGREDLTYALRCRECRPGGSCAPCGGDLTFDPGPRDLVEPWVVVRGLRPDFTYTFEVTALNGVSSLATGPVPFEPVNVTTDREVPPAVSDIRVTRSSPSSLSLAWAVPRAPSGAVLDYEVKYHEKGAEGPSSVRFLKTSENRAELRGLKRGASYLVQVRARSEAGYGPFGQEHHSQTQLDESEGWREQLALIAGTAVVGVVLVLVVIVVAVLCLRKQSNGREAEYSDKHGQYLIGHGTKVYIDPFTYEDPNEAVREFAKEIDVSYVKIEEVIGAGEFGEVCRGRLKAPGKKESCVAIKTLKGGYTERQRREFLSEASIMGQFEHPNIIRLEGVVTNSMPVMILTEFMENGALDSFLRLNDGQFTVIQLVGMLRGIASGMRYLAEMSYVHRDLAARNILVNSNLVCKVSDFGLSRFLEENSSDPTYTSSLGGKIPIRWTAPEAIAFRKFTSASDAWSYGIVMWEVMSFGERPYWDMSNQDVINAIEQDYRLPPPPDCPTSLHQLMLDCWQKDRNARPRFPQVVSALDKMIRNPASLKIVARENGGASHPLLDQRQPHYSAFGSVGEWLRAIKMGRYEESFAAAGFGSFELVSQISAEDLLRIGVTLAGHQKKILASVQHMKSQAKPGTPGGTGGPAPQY
# Chain of Cyclin-dependent kinase 1 (Homo sapiens) (P06493 whole entry, looked up): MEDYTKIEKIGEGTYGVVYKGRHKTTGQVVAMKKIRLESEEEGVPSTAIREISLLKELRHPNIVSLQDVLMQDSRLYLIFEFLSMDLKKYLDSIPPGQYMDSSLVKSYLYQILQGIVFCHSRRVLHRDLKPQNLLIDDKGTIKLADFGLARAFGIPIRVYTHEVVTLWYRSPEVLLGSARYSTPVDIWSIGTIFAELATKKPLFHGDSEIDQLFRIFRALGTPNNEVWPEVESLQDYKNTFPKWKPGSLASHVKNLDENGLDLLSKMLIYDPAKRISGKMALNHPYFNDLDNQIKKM
# Chain of Casein kinase II subunit alpha (P68400 whole entry, looked up): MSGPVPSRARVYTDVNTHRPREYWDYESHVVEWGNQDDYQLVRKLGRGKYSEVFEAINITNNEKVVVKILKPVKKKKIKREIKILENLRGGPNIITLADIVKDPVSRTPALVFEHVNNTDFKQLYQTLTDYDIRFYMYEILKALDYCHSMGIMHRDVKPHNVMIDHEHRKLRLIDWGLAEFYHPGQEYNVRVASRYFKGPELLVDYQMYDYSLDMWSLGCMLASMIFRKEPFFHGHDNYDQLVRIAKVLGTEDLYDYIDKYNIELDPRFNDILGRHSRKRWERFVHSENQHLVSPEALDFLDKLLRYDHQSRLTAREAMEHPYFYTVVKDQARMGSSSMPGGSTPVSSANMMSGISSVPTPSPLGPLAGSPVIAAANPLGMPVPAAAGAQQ
# Chain of Myosin light chain kinase, smooth muscle (Q15746 whole entry): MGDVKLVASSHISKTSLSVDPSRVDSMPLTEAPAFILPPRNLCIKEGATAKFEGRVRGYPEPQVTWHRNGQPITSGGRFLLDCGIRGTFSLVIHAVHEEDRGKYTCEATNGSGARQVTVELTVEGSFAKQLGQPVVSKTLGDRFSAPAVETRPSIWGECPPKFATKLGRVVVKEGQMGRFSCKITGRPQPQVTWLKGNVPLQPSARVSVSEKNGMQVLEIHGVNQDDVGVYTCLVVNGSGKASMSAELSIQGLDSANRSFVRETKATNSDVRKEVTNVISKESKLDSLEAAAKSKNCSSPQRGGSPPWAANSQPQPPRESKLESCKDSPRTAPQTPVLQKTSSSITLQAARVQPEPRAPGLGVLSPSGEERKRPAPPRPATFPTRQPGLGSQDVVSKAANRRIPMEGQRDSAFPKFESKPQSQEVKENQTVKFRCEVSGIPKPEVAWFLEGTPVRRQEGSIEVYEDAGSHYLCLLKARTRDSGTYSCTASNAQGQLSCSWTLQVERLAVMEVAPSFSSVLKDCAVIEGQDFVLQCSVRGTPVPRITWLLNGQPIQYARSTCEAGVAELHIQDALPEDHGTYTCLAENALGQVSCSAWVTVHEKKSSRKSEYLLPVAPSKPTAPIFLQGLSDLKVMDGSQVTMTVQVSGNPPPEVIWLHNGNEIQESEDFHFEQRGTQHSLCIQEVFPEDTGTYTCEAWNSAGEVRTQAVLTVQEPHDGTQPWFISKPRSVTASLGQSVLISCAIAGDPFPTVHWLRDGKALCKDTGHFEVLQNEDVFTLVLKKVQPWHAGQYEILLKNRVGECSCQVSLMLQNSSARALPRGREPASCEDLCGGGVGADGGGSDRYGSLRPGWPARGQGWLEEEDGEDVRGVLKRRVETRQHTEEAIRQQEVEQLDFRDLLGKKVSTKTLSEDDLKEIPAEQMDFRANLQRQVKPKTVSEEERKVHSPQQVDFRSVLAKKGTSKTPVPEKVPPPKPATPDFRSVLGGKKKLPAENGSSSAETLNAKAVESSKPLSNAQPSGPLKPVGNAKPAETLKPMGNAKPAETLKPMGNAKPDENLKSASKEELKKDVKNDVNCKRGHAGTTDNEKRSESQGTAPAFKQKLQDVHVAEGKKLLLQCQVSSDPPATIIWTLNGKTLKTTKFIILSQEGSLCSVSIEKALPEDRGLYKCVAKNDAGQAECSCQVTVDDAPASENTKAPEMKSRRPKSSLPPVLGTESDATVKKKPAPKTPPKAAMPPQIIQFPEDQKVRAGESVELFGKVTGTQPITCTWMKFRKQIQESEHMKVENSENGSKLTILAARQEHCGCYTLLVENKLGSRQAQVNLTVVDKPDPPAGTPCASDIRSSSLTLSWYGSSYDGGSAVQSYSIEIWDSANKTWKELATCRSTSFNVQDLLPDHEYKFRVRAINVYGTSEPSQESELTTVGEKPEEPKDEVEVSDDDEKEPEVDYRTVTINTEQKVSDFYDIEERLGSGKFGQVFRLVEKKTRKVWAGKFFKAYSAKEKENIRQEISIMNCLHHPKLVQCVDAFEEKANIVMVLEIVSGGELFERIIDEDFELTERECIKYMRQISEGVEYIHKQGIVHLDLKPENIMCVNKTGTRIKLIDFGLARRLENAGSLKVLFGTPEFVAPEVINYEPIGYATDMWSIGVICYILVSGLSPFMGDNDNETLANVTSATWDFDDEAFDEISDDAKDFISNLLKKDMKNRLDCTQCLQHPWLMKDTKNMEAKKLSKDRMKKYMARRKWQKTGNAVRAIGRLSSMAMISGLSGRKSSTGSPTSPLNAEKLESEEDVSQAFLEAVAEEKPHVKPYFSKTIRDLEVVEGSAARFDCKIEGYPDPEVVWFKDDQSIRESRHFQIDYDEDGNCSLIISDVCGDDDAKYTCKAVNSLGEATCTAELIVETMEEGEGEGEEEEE
# Chain of Fibroblast growth factor receptor 1 (P11362 22-822 limits assumed): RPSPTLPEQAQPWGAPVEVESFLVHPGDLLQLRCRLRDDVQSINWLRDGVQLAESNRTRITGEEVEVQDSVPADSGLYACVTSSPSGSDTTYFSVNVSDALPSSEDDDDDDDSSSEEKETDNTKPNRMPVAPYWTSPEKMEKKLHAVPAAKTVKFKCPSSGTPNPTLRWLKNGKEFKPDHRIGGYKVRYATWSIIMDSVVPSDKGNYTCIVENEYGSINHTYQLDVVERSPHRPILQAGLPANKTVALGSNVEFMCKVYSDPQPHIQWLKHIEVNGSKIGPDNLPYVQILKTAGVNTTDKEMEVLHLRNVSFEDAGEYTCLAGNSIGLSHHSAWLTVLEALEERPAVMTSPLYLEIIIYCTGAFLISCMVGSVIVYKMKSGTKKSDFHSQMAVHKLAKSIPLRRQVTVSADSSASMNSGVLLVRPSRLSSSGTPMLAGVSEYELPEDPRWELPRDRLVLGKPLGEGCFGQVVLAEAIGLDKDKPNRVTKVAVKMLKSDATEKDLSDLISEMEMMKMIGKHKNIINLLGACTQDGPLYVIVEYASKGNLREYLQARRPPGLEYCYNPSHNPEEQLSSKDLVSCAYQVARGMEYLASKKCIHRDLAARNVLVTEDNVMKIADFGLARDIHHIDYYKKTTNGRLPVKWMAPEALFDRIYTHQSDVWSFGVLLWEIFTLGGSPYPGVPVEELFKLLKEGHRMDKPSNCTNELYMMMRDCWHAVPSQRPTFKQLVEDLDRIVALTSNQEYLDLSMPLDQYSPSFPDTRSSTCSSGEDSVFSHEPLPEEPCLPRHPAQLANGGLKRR
# Chain of Ribosomal protein S6 kinase alpha-6 (Q9UK32 whole entry): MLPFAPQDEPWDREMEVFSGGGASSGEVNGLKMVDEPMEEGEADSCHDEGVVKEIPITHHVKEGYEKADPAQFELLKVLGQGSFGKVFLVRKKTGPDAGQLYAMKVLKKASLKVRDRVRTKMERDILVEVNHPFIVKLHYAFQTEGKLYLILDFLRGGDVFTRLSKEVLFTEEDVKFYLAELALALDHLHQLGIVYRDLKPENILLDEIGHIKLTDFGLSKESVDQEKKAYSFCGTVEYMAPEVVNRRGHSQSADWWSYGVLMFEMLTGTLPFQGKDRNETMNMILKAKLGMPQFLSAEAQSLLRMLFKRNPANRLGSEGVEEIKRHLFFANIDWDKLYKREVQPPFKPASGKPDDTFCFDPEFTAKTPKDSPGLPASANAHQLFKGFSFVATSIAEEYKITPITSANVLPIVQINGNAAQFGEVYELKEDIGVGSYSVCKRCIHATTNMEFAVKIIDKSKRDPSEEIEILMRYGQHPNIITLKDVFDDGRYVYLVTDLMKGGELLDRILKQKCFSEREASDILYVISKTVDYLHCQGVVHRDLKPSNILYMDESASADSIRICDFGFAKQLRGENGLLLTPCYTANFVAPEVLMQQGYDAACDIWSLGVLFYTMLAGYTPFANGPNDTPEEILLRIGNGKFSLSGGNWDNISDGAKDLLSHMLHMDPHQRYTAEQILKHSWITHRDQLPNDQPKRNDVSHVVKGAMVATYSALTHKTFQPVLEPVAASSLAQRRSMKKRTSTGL
structure (smiles),measurement,setting,value
O=C(NOC[C@H](O)CO)c1ccc(F)c(F)c1Nc1ccc(I)cc1F,% of control,[1],77%
same,% of control,[2],100%
Cc1cc([C@@H](C)Nc2ccccc2C(=O)O)c2nc(N3CCOCC3)cc(=O)n2c1 [AZD-6482],% of control,[3],100%
Cc1cnc(Nc2ccc(F)cc2Cl)nc1-c1c[nH]c(C(=O)N[C@H](CO)c2cccc(Cl)c2)c1,% of inhibition,[4],7%
N#Cc1cccc(-c2c[nH]c3ncnc(N4CCOCC4)c23)c1,% of control,[5],100%
same,% of inhibition,[6],19%
CN(C)CCOc1ccc(-c2nc(-c3ccncc3)c(-c3ccc4c(c3)CC/C4=N\O)[nH]2)cc1,% of control,[7],98%
CCN(CC)CCCCNc1ncc2cc(-c3cc(OC)cc(OC)c3)c(NC(=O)NC(C)(C)C)nc2n1,% of control,[8],100%
same,% of control,[9],100%
